{"source": "the supplement of paper PMC10307832", "test_in_all_cases": "relative viability (nuclei count vs DMSO), 5 days (fraction); higher = more cells survive", "key": {"[1]": {"system": "NCI-H596", "outline": "(§1)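 Dosing by pin tool came one day after lung cancer cell lines were seeded in 1536-well plates, using either one drug or a fixed anchor-drug dose plus five library-drug doses (not always all listed) in √10 steps. After 5 days, nuclei were counted on 4× images. Relative viability is treated-well nuclei count divided by vehicle-well nuclei count, and values are medians of duplicate plates.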"}, "[2]": {"system": "EPLC-272H", "outline": "as §1"}, "[3]": {"system": "NCI-H2087", "outline": "as §1"}, "[4]": {"system": "HARA", "outline": "as §1"}, "[5]": {"system": "NCI-H441", "outline": "as §1"}, "[6]": {"system": "NCI-H661", "outline": "as §1"}, "[7]": {"system": "PC-14", "outline": "as §1"}, "[8]": {"system": "NCI-H1793", "outline": "as §1"}, "[9]": {"system": "NCI-H2126", "outline": "as §1"}, "[10]": {"system": "HCC-78", "outline": "as §1"}, "[11]": {"system": "LCLC-97TM1", "outline": "as §1"}, "[12]": {"system": "LXF-289", "outline": "as §1"}, "[13]": {"system": "HOP-62", "outline": "as §1"}, "[14]": {"system": "COR-L23", "outline": "as §1"}, "[15]": {"system": "H3255", "outline": "as §1"}, "[16]": {"system": "NCI-H1395", "outline": "as §1"}, "[17]": {"system": "NCI-H3122", "outline": "as §1"}, "[18]": {"system": "NCI-H2085", "outline": "as §1"}, "[19]": {"system": "NCI-H1666", "outline": "as §1"}, "[20]": {"system": "NCI-H1437", "outline": "as §1"}, "[21]": {"system": "NCI-H1944", "outline": "as §1"}}, "data": [{"smiles": "Nc1cccc2c1CN(C1CCC(=O)NC1=O)C2=O", "note": "(stereo unspecified) [Lenalidomide] + Cc1nc(NC(=O)N2CCC[C@H]2C(N)=O)sc1-c1ccnc(C(C)(C)C(F)(F)F)c1 [Alpelisib] (partner 2 µM)", "values": [{"measurement": "relative viability", "setting": "[1]; first compound 0.253 µM", "result": 0.574}, {"measurement": "relative viability", "setting": "[1]; first compound 0.8 µM", "result": 0.452}, {"measurement": "relative viability", "setting": "[1]; first compound 2.53 µM", "result": 0.481}, {"measurement": "relative viability", "setting": "[1]; first compound 8 µM", "result": 0.497}, {"measurement": "relative viability", "setting": "[2]; first compound 0.253 µM", "result": 0.975}, {"measurement": "relative viability", "setting": "[2]; first compound 2.53 µM", "result": 1.03}, {"measurement": "relative viability", "setting": "[2]; first compound 8 µM", "result": 0.684}, {"measurement": "relative viability", "setting": "[3]; first compound 0.253 µM", "result": 0.996}, {"measurement": "relative viability", "setting": "[3]; first compound 0.8 µM", "result": 0.945}, {"measurement": "relative viability", "setting": "[3]; first compound 2.53 µM", "result": 1.17}, {"measurement": "relative viability", "setting": "[3]; first compound 8 µM", "result": 1.08}, {"measurement": "relative viability", "setting": "[4]; first compound 0.253 µM", "result": 0.782}, {"measurement": "relative viability", "setting": "[4]; first compound 0.8 µM", "result": 0.771}, {"measurement": "relative viability", "setting": "[4]; first compound 2.53 µM", "result": 0.921}, {"measurement": "relative viability", "setting": "[4]; first compound 8 µM", "result": 0.743}, {"measurement": "relative viability", "setting": "[5]; first compound 0.253 µM", "result": 0.74}, {"measurement": "relative viability", "setting": "[5]; first compound 0.8 µM", "result": 0.663}, {"measurement": "relative viability", "setting": "[5]; first compound 2.53 µM", "result": 0.917}, {"measurement": "relative viability", "setting": "[5]; first compound 8 µM", "result": 0.775}, {"measurement": "relative viability", "setting": "[6]; first compound 0.253 µM", "result": 0.957}, {"measurement": "relative viability", "setting": "[6]; first compound 0.8 µM", "result": 0.447}, {"measurement": "relative viability", "setting": "[6]; first compound 2.53 µM", "result": 0.458}, {"measurement": "relative viability", "setting": "[6]; first compound 8 µM", "result": 0.544}, {"measurement": "relative viability", "setting": "[7]; first compound 0.253 µM", "result": 0.899}, {"measurement": "relative viability", "setting": "[7]; first compound 0.8 µM", "result": 0.93}, {"measurement": "relative viability", "setting": "[7]; first compound 2.53 µM", "result": 0.982}, {"measurement": "relative viability", "setting": "[7]; first compound 8 µM", "result": 0.9}, {"measurement": "relative viability", "setting": "[8]; first compound 0.253 µM", "result": 0.858}, {"measurement": "relative viability", "setting": "[8]; first compound 0.8 µM", "result": 0.828}, {"measurement": "relative viability", "setting": "[8]; first compound 2.53 µM", "result": 0.673}, {"measurement": "relative viability", "setting": "[8]; first compound 8 µM", "result": 0.57}, {"measurement": "relative viability", "setting": "[9]; first compound 0.253 µM", "result": 0.735}, {"measurement": "relative viability", "setting": "[9]; first compound 0.8 µM", "result": 0.75}, {"measurement": "relative viability", "setting": "[9]; first compound 2.53 µM", "result": 0.646}, {"measurement": "relative viability", "setting": "[9]; first compound 8 µM", "result": 0.55}, {"measurement": "relative viability", "setting": "[10]; first compound 0.253 µM", "result": 0.381}, {"measurement": "relative viability", "setting": "[10]; first compound 0.8 µM", "result": 0.339}, {"measurement": "relative viability", "setting": "[10]; first compound 2.53 µM", "result": 0.314}, {"measurement": "relative viability", "setting": "[10]; first compound 8 µM", "result": 0.209}, {"measurement": "relative viability", "setting": "[11]; first compound 0.8 µM", "result": 0.236}, {"measurement": "relative viability", "setting": "[11]; first compound 2.53 µM", "result": 0.308}, {"measurement": "relative viability", "setting": "[11]; first compound 8 µM", "result": 0.164}, {"measurement": "relative viability", "setting": "[12]; first compound 0.253 µM", "result": 1.05}, {"measurement": "relative viability", "setting": "[12]; first compound 0.8 µM", "result": 1.05}, {"measurement": "relative viability", "setting": "[12]; first compound 2.53 µM", "result": 1.11}, {"measurement": "relative viability", "setting": "[12]; first compound 8 µM", "result": 1.08}, {"measurement": "relative viability", "setting": "[13]; first compound 0.253 µM", "result": 0.983}, {"measurement": "relative viability", "setting": "[13]; first compound 0.8 µM", "result": 1.08}, {"measurement": "relative viability", "setting": "[13]; first compound 2.53 µM", "result": 0.984}, {"measurement": "relative viability", "setting": "[13]; first compound 8 µM", "result": 0.828}, {"measurement": "relative viability", "setting": "[14]; first compound 0.253 µM", "result": 0.798}, {"measurement": "relative viability", "setting": "[14]; first compound 0.8 µM", "result": 0.794}, {"measurement": "relative viability", "setting": "[14]; first compound 2.53 µM", "result": 0.784}, {"measurement": "relative viability", "setting": "[14]; first compound 8 µM", "result": 0.875}, {"measurement": "relative viability", "setting": "[15]; first compound 0.253 µM", "result": 0.664}, {"measurement": "relative viability", "setting": "[15]; first compound 0.8 µM", "result": 0.682}, {"measurement": "relative viability", "setting": "[15]; first compound 2.53 µM", "result": 0.916}, {"measurement": "relative viability", "setting": "[15]; first compound 8 µM", "result": 0.584}, {"measurement": "relative viability", "setting": "[16]; first compound 0.253 µM", "result": 0.946}, {"measurement": "relative viability", "setting": "[16]; first compound 2.53 µM", "result": 1.06}, {"measurement": "relative viability", "setting": "[16]; first compound 8 µM", "result": 0.948}, {"measurement": "relative viability", "setting": "[17]; first compound 0.253 µM", "result": 0.779}, {"measurement": "relative viability", "setting": "[17]; first compound 0.8 µM", "result": 0.961}, {"measurement": "relative viability", "setting": "[17]; first compound 2.53 µM", "result": 0.797}, {"measurement": "relative viability", "setting": "[17]; first compound 8 µM", "result": 0.659}, {"measurement": "relative viability", "setting": "[18]; first compound 0.253 µM", "result": 1.01}, {"measurement": "relative viability", "setting": "[18]; first compound 0.8 µM", "result": 0.997}, {"measurement": "relative viability", "setting": "[18]; first compound 2.53 µM", "result": 0.952}, {"measurement": "relative viability", "setting": "[18]; first compound 8 µM", "result": 0.972}, {"measurement": "relative viability", "setting": "[19]; first compound 0.253 µM", "result": 1.04}, {"measurement": "relative viability", "setting": "[19]; first compound 0.8 µM", "result": 0.83}, {"measurement": "relative viability", "setting": "[19]; first compound 2.53 µM", "result": 0.882}, {"measurement": "relative viability", "setting": "[19]; first compound 8 µM", "result": 1.04}, {"measurement": "relative viability", "setting": "[20]; first compound 0.253 µM", "result": 1.01}, {"measurement": "relative viability", "setting": "[20]; first compound 0.8 µM", "result": 1.03}, {"measurement": "relative viability", "setting": "[20]; first compound 2.53 µM", "result": 1.09}, {"measurement": "relative viability", "setting": "[20]; first compound 8 µM", "result": 1}, {"measurement": "relative viability", "setting": "[21]; first compound 0.253 µM", "result": 0.885}, {"measurement": "relative viability", "setting": "[21]; first compound 0.8 µM", "result": 0.934}, {"measurement": "relative viability", "setting": "[21]; first compound 2.53 µM", "result": 0.897}, {"measurement": "relative viability", "setting": "[21]; first compound 8 µM", "result": 0.654}]}]}
